Laboratory results as given in patent US11389382B2, “Biphase chemical peel” (L'OREAL, priority 2019, dated 2022).

How the values were obtained:
stratum corneum samples = test: In vitro stratum corneum comparison of ΔT using differential scanning calorimetry (lipid disorganization); conditions: DSC 20° C. to 120° C. at 5° C./min; 0.1 g/sample on SC surface for 15 min in 75% RH
Method: In Vitro Stratum Corneum Comparison of ΔT using differential scanning calorimetry (DSC) to characterize the stability of a protein or other biomolecule directly in its native form. It does this by measuring the heat change associated with the molecule's thermal denaturation when heated at a constant rate.
Studies were conducted with each of the exemplified inventive and comparative compositions, to evaluate effect of the compositions on the stratum corneum. Inventive 1 and Inventive 2 compositions and the Comparative composition together with Jessner peel, glycolic acid alone and isopropyl myristate controls were evaluated on SC samples according to the following procedure. Stratum corneum samples were equilibrated at 75% RH overnight. Inventive and Comparative Compositions and control treatments applied on SC surface (0.1 g/sample) for 15 min in 75% RH. The SC surface was wiped clean and rinsed with DI water. Allow to dry in 75% RH overnight. The DSC profile was measured from 20° C. to 120° C. at 5° C./min.

forearm skin = test: In vivo tape stripping, protein removed, Micro BCA assay (efficacy of desquamation); design: species or system human; conditions: tape stripping of forearm after 15 min treatment; 4 tape strippings per region, average of 3 regions, single person
Method: Example 5: In Vivo Tape Stripping Protein Removed Using a Micro […] Assay to Characterize the Efficacy of Desquamation
Studies were conducted with each of the exemplified inventive and comparative compositions, to evaluate effect of the compositions on live skin tape stripping samples. Inventive 1 and Inventive 2 compositions and the Comparative composition together with Jessner peel, glycolic acid alone and isopropyl myristate controls were evaluated according to the following procedure. Tape strips of skin areas tested with each composition were obtained, with 4 tape strippings per region; Average of 3 regions; Experiment done on single person rinse the forearm with distilled water and dry it for 3 minutes; Wipe with the peel test composition saturated cotton pads on the designated area and dry it for 15 min; Rinse the forearm with the water and dry the moisture by placing a tissue and patting the tissue. Air dry it for 3 min; Perform the tape stripping—(1) put the tape on, (2) place the metal plate on top of the tape, and (3) put weight (2 kg) for 5 seconds.—3 tapes (3 different regions of the skin)/peel test composition×4 tape stripping; Each tape (1.4 cm) was inserted in a 2 mL Eppendorf tube and 500 uL of PBS was added to each tube; Shaking condition ([…]) for 2 hours @ room temperature; Sonication for 20 min in ice water; Micro BCA assay.

[1] = acute oral toxicity, mutagenicity, skin irritation, skin sensitization, phototoxicity; cited from earlier work

SMILES	ΔT (measurement of lipid disorganization) (stratum corneum samples)	Protein Content (protein removed) (forearm skin)	adverse effects in basic toxicological tests [1]
O=C(O)CO [Glycolic Acid Control, glycolic acid]	5.94 ± 0.41	1.65 ± 0.02 μg/cm^2	–
CC(c1ccccc1)c1ccc(O)cc1O (centres unmarked) [Phenylethyl resorcinol]	–	–	not shown adverse effects
CCCCCCCCCCCCCC(=O)OC(C)C [Isopropyl myristate control, isopropyl myristate]	6.40 ± 0.1	2.4 ± 0.88 μg/cm^2	–
